According to patent publication US20090228996A1, “Means and Methods for influencing Interactions Between Dc-Sign and Dc-Sign Ligands” (priority 2006, published 2009):

Tests used:
[1] = biological target: T1, DC-SIGN on Raji-DC-SIGN cells (Homo sapiens, UniProt Q9NNX6); assay: gp120 bead adhesion assay, Raji-DC-SIGN cells; format: cell-based; conditions: for binding of gp120 beads to Raji-DC-SIGN: cells pre-incubated 30 min, human milk 1/20, vs control
T1 construct: expressed in transfected cells; host or cells: Raji cells (Raji-DC-SIGN)
T1 sequence (Q9NNX6 1-404): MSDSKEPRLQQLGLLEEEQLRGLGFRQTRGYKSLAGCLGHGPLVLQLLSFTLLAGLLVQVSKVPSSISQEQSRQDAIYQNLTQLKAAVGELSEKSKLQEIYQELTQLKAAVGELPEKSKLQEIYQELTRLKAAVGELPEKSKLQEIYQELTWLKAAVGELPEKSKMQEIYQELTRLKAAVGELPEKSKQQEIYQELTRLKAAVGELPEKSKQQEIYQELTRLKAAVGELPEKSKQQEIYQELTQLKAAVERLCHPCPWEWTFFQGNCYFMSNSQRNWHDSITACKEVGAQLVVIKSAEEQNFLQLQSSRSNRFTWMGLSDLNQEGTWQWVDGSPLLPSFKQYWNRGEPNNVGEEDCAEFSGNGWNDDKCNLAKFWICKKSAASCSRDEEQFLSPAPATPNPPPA
Description: (§1) gp120 bead adhesion assay. Beads were prepared as previously described (Geijtenbeek et al, 2000 a), in short, streptavidin was covalently coupled to Carboxylate-modified TransFluoSpheres (488/645 nm, 1.0 μm; molecular probes). The steptavidin-beads were incubated with biotinylated F(ab′)2 fragment goat-anti-human IgG (6 μg/ml; Jackson Immunoresearch) and subsequently incubated overnight with gp120-Fc chimera. Fifty thousand cells, Raji-DC-SIGN cells, immature DCs or Raji-L-SIGN cells, were pre-incubated with human milk or milk compounds, AZN-D1 (Geijtenbeek et al, 2000 a), AZN-D2 (Halary et al, 2002), EGTA or mannan for 30 minutes at RT. The ligand-coated beads (20 beads/cell) were added to the pre-incubated cells and incubated for 30 minutes at 37° C. after which the cells were washed with TSM containing 0.5% BSA. After washing, the cells were resuspended in 100 μl TSM-BSA buffer and the adhesion was measured by flow cytometry (BD Biosciences).
(§2) gp120 bead adhesion assay. Beads were prepared as previously described (Geijtenbeek et al, 2000 a), in short, streptavidin was covalently coupled to Carboxylate-modified TransFluoSpheres (488/645 nm, 1.0 μm; molecular probes). The steptavidin-beads were incubated with biotinylated F(ab′)2 fragment goat-anti-human IgG (6 μg/ml; Jackson Immunoresearch) and subsequently incubated overnight with the gp120-Fc chimera. Fifty thousand cells, Raji-DC-SIGN cells or iDCs were pre-incubated with human milk, AZN-D1 (Geijtenbeek et al, 2000 a), AZN-D2 (Halary et al, 2002), EGTA or mannan for 30 minutes at RT. The ligand-coated beads (20 beads/cell) were added to the pre-incubated cells and incubated for 30 minutes at 37° C. after which the cells were washed with TSM (20 mM Tris, 150 mM NaCl, 1 mM CaCl2, 2 mM MgCl2) containing 0.5% BSA. After washing, the cells were resuspended in 100 μl TSM-BSA buffer and the adhesion was measured by flow cytometry (BD Biosciences).

DC-SIGN on iDCs = biological target: T2, DC-SIGN on iDCs (Homo sapiens, UniProt Q9NNX6); assay: gp120 bead adhesion assay, immature DCs; format: cell-based; conditions: for binding of gp120 beads to iDC: cells pre-incubated 30 min, human milk 1/20, vs control
T2 construct: endogenous in cells
T2 sequence (Q9NNX6 1-404): T1 sequence (Q9NNX6 1-404)
Description: as §1, §2

DC-SIGN-Fc = biological target: T3, DC-SIGN-Fc (Homo sapiens, UniProt Q9NNX6); assay: DC-SIGN-Fc binding ELISA
T3 construct: the extracellular portion of DC-SIGN (amino acids 64 to 404)
T3 sequence (Q9NNX6 64-404): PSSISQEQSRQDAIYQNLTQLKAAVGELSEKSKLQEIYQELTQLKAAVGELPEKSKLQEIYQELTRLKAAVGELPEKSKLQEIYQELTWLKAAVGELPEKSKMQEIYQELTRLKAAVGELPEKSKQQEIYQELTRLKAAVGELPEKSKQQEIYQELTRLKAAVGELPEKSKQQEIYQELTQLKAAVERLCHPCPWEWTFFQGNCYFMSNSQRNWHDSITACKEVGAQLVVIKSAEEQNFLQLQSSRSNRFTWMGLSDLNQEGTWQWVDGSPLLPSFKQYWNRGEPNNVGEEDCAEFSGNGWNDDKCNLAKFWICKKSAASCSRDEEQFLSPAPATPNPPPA
Description: DC-SIGN-Fc binding ELISA. The DC-SIGN-Fc chimera contained the extracellular portion of DC-SIGN (amino acids 64 to 404) fused at the C-terminus to a human immunoglobulin (Ig) G1 Fc fragment and has been previously described (Geijtenbeek et al, 2002). Human milk or human milk compounds were diluted in 0.2M NaHCO3, coated on ELISA plates (maxisorb plate; Nunc) and incubated overnight at 4° C. or 2 hours at 37° C. This was followed by blocking with TSM containing 1% BSA for 30 minutes at 37° C. before addition of soluble DC-SIGN-Fc (5 μg/ml) for 2 hours at RT, the binding was determined by incubation of a peroxidase labeled anti-IgG1 antibody for 30 minutes at RT. DC-SIGN-Fc binding specificity was determined by pre-incubation of the DC-SIGN-FC with either 50 μg/ml DC-SIGN specific mouse antibody AZN-D1 (Geijtenbeek et al, 2000 a) or 10 mM EGTA. Single-cycle-replication transmission assay. The assay was performed as previously described (Groot et al, 2005). In short mDCs and iDCs were incubated in a 96-well-plate (35−50×10^3 DC/well) with human milk for 30 minutes at 37° C. before addition of the virus (5 ng p24/well), which was incubated for 2 hours at 37° C. The DCs were washed twice with PBS before addition of 50×10^3 LuSIV cells. After 24 hours, LuSIV cells were harvested and resuspended in 50 μl lysis buffer (25 mM Tris-Cl 7.8, 2 mM DTT, 2 mM CDTA, 10% glycerol, 1% Triton X100). The cells were then incubated for 45 minutes at room temperature while shaking, followed by 10 minutes centrifugation at 3200×g. […]
DC-SIGN-Fc binding ELISA. […] This was followed by blocking with TSM containing 1% BSA for 30 minutes at 37° C. before addition of soluble DC-SIGN-Fc (5 μg/ml) for 2 hours at RT, the binding was determined by incubation of a peroxidase labeled anti-IgG1 antibody for 30 minutes at RT. DC-SIGN-Fc binding specificity was determined by pre-incubation of the DC-SIGN-Fc with either 50 μg/ml DC-SIGN specific mouse antibody AZN-D1 (Geijtenbeek et al, 2000 a) or 10 mM EGTA.

[2] = test system: DC-SIGN mediated transfer of HIV-1 by Raji-DC-SIGN cells to CD4+ T-lymphocytes; assay: DC-SIGN mediated HIV-1 transfer assay (Raji-DC-SIGN transfer culture assay); format: cell-based; conditions: Le^x containing compounds, all at 10 μg/ml
Description: DC-SIGN mediated HIV-1 transfer assay. The Raji and Raji-DC-SIGN cells were plated at a concentration of 2×10^4 cells/well in a 96 well format. Dilutions of human milk or human milk compounds were made in PBS containing 10% FCS and spiked with 3.7log TCID50/ml of the appropriate virus before addition to the Raji-DC-SIGN cells. As controls PBS containing 10% FCS was spiked with the same TCID50/ml of the corresponding virus before addition to Raji or Raji-DC-SIGN cells. After incubation the culture was washed with PBS before addition of CD4^+ enriched T-lymphocytes at a concentration of 1×10^5 cells/well with p24 determined on day 7. DC-SIGN specific antibody binding after exposure to human milk. […] The cells were washed and resuspended in 100 μl TSM containing 0.5% bovine serum albumin, (BSA Fraction V, Fatty Acid-Free) (Calbiochem) and the adhesion was measured by flow cytometry (BD Biosciences).
DC-SIGN mediated HIV-1 transfer assay. […] After a two hour incubation the culture was washed with PBS before addition of CD4^+ enriched T-lymphocytes at a concentration of 1×10^5 cells/well with p24 values determined on day 7.

DC-SIGN [3] = biological target: T4, DC-SIGN (Homo sapiens, UniProt Q9NNX6); assay: gp120 bead adhesion assay, cells not given; format: cell-based; conditions: Le^x containing compounds; data not shown
T4 sequence (Q9NNX6 1-404): T1 sequence (Q9NNX6 1-404)
Description: as §1

DC-SIGN [4] = biological target: T4, DC-SIGN; conditions: literature; cited from earlier work
[5] = Example 2, protein fraction from milk S3 (C18 column) and DC-SIGN controls
[6] = major milk proteins at 1/20 dilution of physiological concentration in human milk

## O=C(O)CN(CCOCCOCCN(CC(=O)O)CC(=O)O)CC(=O)O [EGTA, reference compound]
[1]
  binding of gp120 beads to Raji-DC-SIGN: block binding of gp120 beads to the DC-SIGN expressing cells to the same extent as human milk
DC-SIGN on iDCs; [5]
  gp120 binding to iDCs: demonstrated inhibition
DC-SIGN on iDCs
  binding of gp120 beads to iDC: block binding of gp120 beads to the DC-SIGN expressing cells to the same extent as human milk
DC-SIGN-Fc; 50 μg/ml AZN-D1 or 10 mM EGTA, p<0.01
  DC-SIGN-Fc binding to human milk after pre-incubation of DC-SIGN-Fc: completely abrogated binding

## Le^x-BSA: Lewis X-BSA, 14 atom spacer (Calbiochem)
[2]
  DC-SIGN mediated HIV-1 transfer: able to inhibit DC-SIGN mediated HIV-1 transfer
DC-SIGN [3]
  interaction between DC-SIGN and gp120: none of the tested compounds were able to block the interaction
DC-SIGN-Fc; Le^x-BSA or BSA control coated
  binding to DC-SIGN-Fc: demonstrates binding to DC-SIGN-Fc

## human lysozyme: major human milk protein (Sigma) [reference compound]
[1]; [6]
  gp120 binding to Raji-DC-SIGN: None of the tested human milk compounds could inhibit gp120 binding
DC-SIGN on iDCs; [6]
  gp120 binding to iDCs: None of the tested human milk compounds could inhibit gp120 binding
DC-SIGN-Fc; [6]
  DC-SIGN-Fc binding to coated milk compound: showed no binding

## lacto-N-fucopentaose III [LNFP III, reference compound]
[2]
  DC-SIGN mediated HIV-1 transfer: not able to prevent HIV-1 transfer
DC-SIGN [3]
  interaction between DC-SIGN and gp120: none of the tested compounds were able to block the interaction
DC-SIGN [4]
  previously shown DC-SIGN binding: bind DC-SIGN

## mannan
[1]
  binding of gp120 beads to Raji-DC-SIGN: block binding of gp120 beads to the DC-SIGN expressing cells to the same extent as human milk
DC-SIGN on iDCs; [5]
  gp120 binding to iDCs: demonstrated inhibition
DC-SIGN on iDCs
  binding of gp120 beads to iDC: block binding of gp120 beads to the DC-SIGN expressing cells to the same extent as human milk
